Experimental data as given in patent US20240287463A1, “INDUCIBLE TISSUE CONSTRUCTS AND USES THEREOF” (Massachusetts Institute of Technology, priority 2020, published 2024).

Columns and labels:
iCasp9-GFP J2s = assay: fibroblast deletion from 3D spheroid-laden hydrogels; assay type: cell-based
Source text: Previous work identified that phenotypic stability and longevity of primary hepatocytes cultured as 3D microtissues were transiently supported by pre-aggregation to increase homotypic cell-cell interactions, and were further enhanced upon inclusion of J2 fibroblasts (C. Y. Li et al. (2014) Tissue Eng. Part A 20, 2200). Thus, iCasp9-GFP J2 fibroblasts were incorporated into these 3D hepatic ensembles, which were fabricated by plating primary human hepatocytes and fibroblasts in microwells in order to facilitate physical cell-cell contacts, as previously described (K. Stevens et al. (2013) Nat. Commun. 4, 1847; K. R. Stevens et al. (2017) Sci. Transl. Med. 9, eaaah5505). […] Hepatic spheroids (about 150 hepatocytes per spheroid, ˜100 μm diameter) were imaged and analyzed to quantify the extent of spheroid compaction. […] Resulting morphologies were traced and measured for circularity. […]
To probe the dependence of hepatocyte phenotypic stability on fibroblast co-culture in 3D, fibroblasts were deleted from spheroid-laden hydrogel cultures using CAMEO after 1 day of hepatocyte-fibroblast co-culture. Fibroblasts were robustly removed from 3D co-cultures as described in the above Examples, and detected by immunofluorescence imaging (FIG. 3I). […]

[1] = system: primary human hepatocytes; assay: hepatocyte albumin and urea in tri-culture microfluidic devices; assay type: cell-based; settings: 50 nM CID after 5 days of tri-culture
Source text: Specifically, MPCC were fabricated as described previously (S. R. Khetani and S. N. Bhatia (2005) Nat. Biotechnol 26, 120; S. March et al. (2015) Nat. Protoc. 10, 2007). Briefly, collagen was adsorbed in each well of a 96 well plate (glass bottom), and then patterned using an elastomeric polydimethysiloxane mold and oxygen plasma gas ablation. Human hepatocytes were thawed and seeded (70 k/well) on the collagen islands (500 μm with 1,200 μm center-to-center spacing). Adhered hepatocytes (˜10 k/well) were allowed to spread overnight before fibroblasts were seeded for co-culture (7 k/well). Supernatant was collected from cultures every other day and stored at −20° C. Human albumin was quantified using an enzyme-linked immunosorbent assay using a sheep anti-rat albumin antibody (ELISA) (Bethyl Laboratories) and 3,3′,5,5′-tetramethylbenzidine (TMB, Thermo Fisher). Urea concentration was measured using a colorimetric (diacetylmonoxime) assay with acid and heat (Stanbio Labs). CYP3A4 activity was assessed with the luminogenic P450-GloTM CYP450 assay kit (Promega) for nonlytic assays using cultured cells. Cultures were pre-treated with 2 μM rifampin or 1:1,000 DMSO vehicle control prepared in hepatocyte maintenance media for 72 hours (daily replenishment) where indicated.
Given that fibroblasts are only transiently required for supporting the formation of a functional vasculature, it was investigated whether CAMEO could be used in the vascularization of tissue constructs with organ-specific parenchymal cells without negatively affecting the function of the parenchymal cells. To investigate this, a tri-culture system of HUVECs, iCasp9-HDFs, and primary human hepatocytes was employed in the microfluidic device. […] To evaluate whether the hepatocytes remained functional after CID treatment, levels of albumin and urea, markers for hepatic protein synthesis function and nitrogen metabolism, respectively, were measured in the media.

secretive functions of the hepatocytes [1]: did not negatively affect
SMILES: CC[C@H](C(=O)N1CCCC[C@H]1C(=O)O[C@H](CCc1ccc(OC)c(OC)c1)c1cccc(OCC(=O)NCC(CNC(=O)COc2cccc([C@@H](CCc3ccc(OC)c(OC)c3)OC(=O)[C@@H]3CCCCN3C(=O)[C@@H](CC)c3cc(OC)c(OC)c(OC)c3)c2)CN(C)C)c1)c1cc(OC)c(OC)c(OC)c1 [CID, AP20187]
iCasp9-GFP staining (iCasp9-GFP J2s; 50 nM CID at day 1, imaged starting at day 2): negligible
deletion of iCasp9-GFP J2s throughout the hydrogel (iCasp9-GFP J2s; spheroid-laden hydrogel cultures, data not shown): robust and specific deletion
secreted albumin versus vehicle control ([1]; day 7): statistically higher level
secreted urea versus vehicle control ([1]; day 7): statistically higher level
